Laboratory results as given in US8791303B2, “Herbicides” (Syngenta Limited, priority 2009, dated 2014).

How the values were obtained:
Format in all cases: in vivo
[1] = tested on: Alopecurus myosuroides (ALOMY); experiment: Example A glasshouse herbicide test, pre-emergence, ALOMY; settings: Alopecurus myosuroides, pre-emergence, 312 h, Rate 250 g/ha, sprayed after cultivation for one day, evaluated after 13 days, read-out: Pre-Emergence Activity ALOMY (100=total damage to plant; 0=no damage to plant)
Method: (§1) Seeds of a variety of test species are sown in standard soil in pots. After cultivation for one day (pre-emergence) or after 8 days cultivation (post-emergence) under controlled conditions in a glasshouse (at 24/16° C., day/night; 14 hours light; 65% humidity), the plants are sprayed with an aqueous spray solution derived from the formulation of the technical active ingredient in acetone/water (50:50) solution containing 0.5% Tween 20 (polyoxyethelyene sorbitan monolaurate, CAS RN 9005-64-5).
(§2) The test plants are then grown in a glasshouse under controlled conditions in a glasshouse (at 24/16° C., day/night; 14 hours light; 65% humidity) and watered twice daily. After 13 days for pre and post-emergence, the test is evaluated (100=total damage to plant; 0=no damage to plant).
(§3) Lolium perenne (LOLPE), Alopecurus myosuroides (ALOMY), Echinochloa crus-galli (ECHCG), Avena fatua (AVEFA)

Lolium perenne (LOLPE) [2] = experiment: Example A glasshouse herbicide test, post-emergence, LOLPE; settings: Lolium perenne, post-emergence, 312 h, Rate 250 g/ha, sprayed after 8 days cultivation, evaluated after 13 days, read-out: Post-Emergence Activity LOLPE (100=total damage to plant; 0=no damage to plant)
Method: as §1, §2, §3

[3] = tested on: Winter Wheat variety 'Hereward'; experiment: Example B crop damage test, post-emergence, unsafened wheat; settings: Rate 250 g/ha; post-emergence spray after 8 days cultivation; no safener; evaluated after 13 days
Method: Seeds of the Winter Wheat variety ‘Hereward’ were sown in standard soil in pots. After 8 days cultivation under controlled conditions in a glasshouse (at 24/16° C., day/night; 14 hours light; 65% humidity), the plants were sprayed post-emergence with an aqueous spray solution derived from the formulation of the technical active ingredient in acetone/water (50:50) solution containing 0.5% Tween 20 (polyoxyethelyene sorbitan monolaurate, CAS RN 9005-64-5).
(§4) The test plants were then grown in a glasshouse under controlled conditions in a glasshouse (at 24/16° C., day/night; 14 hours light; 65% humidity) and watered twice daily. After 13 days for pre and post-emergence, the test was evaluated (100=total damage to plant; 0=no damage to plant).

[4] = tested on: Alopecurus myosuroides (ALOMY); experiment: Example A glasshouse herbicide test, post-emergence, ALOMY; settings: Alopecurus myosuroides, post-emergence, 312 h, Rate 250 g/ha, sprayed after 8 days cultivation, evaluated after 13 days, read-out: Post-Emergence Activity ALOMY (100=total damage to plant; 0=no damage to plant)
Method: as §1, §2, §3

Lolium perenne (LOLPE) [5] = experiment: Example A glasshouse herbicide test, pre-emergence, LOLPE; settings: Lolium perenne, pre-emergence, 312 h, Rate 250 g/ha, sprayed after cultivation for one day, evaluated after 13 days, read-out: Pre-Emergence Activity LOLPE (100=total damage to plant; 0=no damage to plant)
Method: as §1, §2, §3

Avena fatua (AVEFA) [6] = experiment: Example A glasshouse herbicide test, post-emergence, AVEFA; settings: Avena fatua, post-emergence, 312 h, Rate 250 g/ha, sprayed after 8 days cultivation, evaluated after 13 days, read-out: Post-Emergence Activity AVEFA (100=total damage to plant; 0=no damage to plant)
Method: as §1, §2, §3

[7] = tested on: Winter Wheat variety 'Hereward'; experiment: Example B crop damage test, post-emergence, wheat seed treated with safener cloquintocet mexyl; settings: Rate 250 g/ha; post-emergence spray 8 days after sowing; seed treated with cloquintocet mexyl 0.5 g/kg dry seed; evaluated after 13 days
Method: Seeds of the Winter Wheat variety ‘Hereward’ were seed treated with a wettable powder formulation of the cereal herbicide safener, cloquintocet mexyl, at a rate of 0.5 grams per kilogram of dry seed prior to the initiation of glasshouse testing. One seed was sown per 1.5 inch plastic pot into a sandy loam soil at a depth of 1 cm, 8 days prior to application of the test compounds and was watered and grown under controlled conditions in a glasshouse (at 24/16° C., day/night; 14 hours light; 65% humidity). The plants were sprayed post-emergence with an aqueous spray solution derived from the formulation of the technical active ingredient in acetone/water (50:50) solution containing 0.5% Tween 20 (polyoxyethelyene sorbitan monolaurate, CAS RN 9005-64-5).
as §4

[8] = tested on: Echinochloa crus-galli (ECHCG); experiment: Example A glasshouse herbicide test, post-emergence, ECHCG; settings: Echinochloa crus-galli, post-emergence, 312 h, Rate 250 g/ha, sprayed after 8 days cultivation, evaluated after 13 days, read-out: Post-Emergence Activity ECHCG (100=total damage to plant; 0=no damage to plant)
Method: as §1, §2, §3

Avena fatua (AVEFA) [9] = experiment: Example A glasshouse herbicide test, pre-emergence, AVEFA; settings: Avena fatua, pre-emergence, 312 h, Rate 250 g/ha, sprayed after cultivation for one day, evaluated after 13 days, read-out: Pre-Emergence Activity AVEFA (100=total damage to plant; 0=no damage to plant)
Method: as §1, §2, §3

[10] = tested on: Echinochloa crus-galli (ECHCG); experiment: Example A glasshouse herbicide test, pre-emergence, ECHCG; settings: Echinochloa crus-galli, pre-emergence, 312 h, Rate 250 g/ha, sprayed after cultivation for one day, evaluated after 13 days, read-out: Pre-Emergence Activity ECHCG (100=total damage to plant; 0=no damage to plant)
Method: as §1, §2, §3

| Compound | pest or weed control at 250 g/ha [1] [%] | pest or weed control at 250 g/ha (Lolium perenne (LOLPE) [2]) [%] | Winter Wheat (Hereward) damage (100=total damage to plant; 0=no damage to plant) [3] | pest or weed control at 250 g/ha [4] [%] | pest or weed control at 250 g/ha (Lolium perenne (LOLPE) [5]) [%] | pest or weed control at 250 g/ha (Avena fatua (AVEFA) [6]) [%] | Winter Wheat (Hereward) + cloquintocet mexyl damage (100=total damage to plant; 0=no damage to plant) [7] | pest or weed control at 250 g/ha [8] [%] | pest or weed control at 250 g/ha (Avena fatua (AVEFA) [9]) [%] | pest or weed control at 250 g/ha [10] [%] |
| --- | --- | --- | --- | --- | --- | --- | --- | --- | --- | --- |
| COC1CCC(CC2CC(=O)C(c3c(C)cc(C)cc3C)C2=O)CC1 (stereo not shown) [Compound A38, 4-(4-Methoxy-cyclohexylmethyl)-2-(2,4,6-trimethyl-phenyl)-cyclopentane-1,3-dione] | 90 | 100 | 70 | 100 | 100 | 100 | 50 | 100 | 60 | 100 |
| Cc1cc(C)c(C2C(=O)C/C(=C\C3CCCCC3)C2=O)c(C)c1 (stereo not shown) [Compound A1] | 70 | 80 | 60 | 80 | 100 | 80 | 50 | 90 | 50 | 100 |
| Cc1cc(C)c(C2C(=O)CC(CC3CCC(C)CC3)C2=O)c(C)c1 (stereo not shown) [Compound A33] | 30 | 100 | 40 | 30 | 0 | 70 | 0 | 60 | 50 | 100 |
| Cc1cc(C)c(C2C(=O)C/C(=C\C3CCCC(C)C3)C2=O)c(C)c1 (stereo not shown) [Compound A30] | 80 | 60 | 50 | 60 | 100 | 70 | 0 | 80 | 70 | 100 |
| Cc1cc(Br)cc(C)c1C1C(=O)CC(CC2CCCCC2)C1=O (stereo not shown) [Compound A11] | 0 | 50 | 0 | 10 | 20 | 0 | 0 | 20 | 0 | 0 |
| Cc1cc(C)c(C2C(=O)CC(CC3CCCC(C)C3)C2=O)c(C)c1 (stereo not shown) [Compound A32] | 70 | 100 | 30 | 70 | 90 | 90 | 0 | 100 | 50 | 100 |
| Cc1cc(C)c(C2C(=O)C/C(=C\C3CCCC3)C2=O)c(C)c1 (stereo not shown) [Compound A4] | 100 | 60 | 60 | 70 | 100 | 70 | 0 | 90 | 70 | 100 |
| Cc1cc(C)c(C2C(=O)CC(CC3CCCC3)C2=O)c(C)c1 (stereo not shown) [Compound A3] | 100 | 90 | 60 | 90 | 100 | 80 | 20 | 90 | 70 | 100 |
| Cc1cc(C)c(C2C(=O)CC(CC3CCC3)C2=O)c(C)c1 (stereo not shown) [Compound A25] | 100 | 100 | 30 | 60 | 100 | 80 | 0 | 90 | 60 | 100 |
| Cc1cc(C)c(C2C(=O)C/C(=C\C3CC3)C2=O)c(C)c1 (stereo not shown) [Compound A27, 4-[1-Cyclopropyl-methylidene]-2-(2,4,6-trimethyl-phenyl)-cyclopentane-1,3-dione] | 90 | 100 | 40 | 60 | 100 | 70 | 0 | 100 | 70 | 100 |
| Cc1cc(C)c(C2C(=O)CC(CC3CC(C)CCC3C(C)C)C2=O)c(C)c1 (stereo not shown) [Compound A34] | 10 | 30 | 20 | 20 | 0 | 10 | 10 | 10 | 0 | 60 |
| Cc1cc(C)c(C2C(=O)CC(CC3CCCC4CCCCC43)C2=O)c(C)c1 (stereo not shown) [Compound A36] | 70 | 70 | 20 | 40 | 10 | 90 | 0 | 70 | 50 | 70 |
| C=C(C)C1CCC(/C=C2\CC(=O)C(c3c(C)cc(C)cc3C)C2=O)CC1 (stereo not shown) [Compound A5] | 30 | 30 | 10 | 30 | 40 | 20 | 0 | 30 | 0 | 80 |
